Reference: publication PMC4184567, “Glucuronidation of drugs in humanized UDP-glucuronosyltransferase 1 mice: Similarity with glucuronidation in human liver microsomes” (Pharmacology Research & Perspectives, 2013)
Values belong to the compound of their own block, whether it stands above or below them.

Tests used:
[1] = system: UGT (furosemide glucuronidation); test: Inhibition of furosemide glucuronidation in liver microsomes from hUGT1 mice; type: in vitro ADME, humanized UGT1 mice; details: male, Tg(UGT1A1*28)Ugt1−/− (hUGT1), C57BL/6 background, mouse (humanized UGT1), pH 7.4, probe furosemide; humanized UGT1 mice liver microsomes
Source text: (§1) IC50 values were directly determined from linear regression.

[2] = system: furosemide glucuronidation in liver microsomes from hUGT1 mice; test: as above; type: in vitro ADME, humanized UGT1 mice; details: hUGT1 mice liver microsomes, 500 μmol/L AZT
Source text: as §1

[3] = system: UGT (furosemide glucuronidation); test: Inhibition of furosemide glucuronidation in human liver microsomes; type: in vitro ADME; details: pH 7.4, probe furosemide
Source text: as §1

[4] = system: furosemide glucuronidation in human liver microsomes; test: as above; type: in vitro ADME; details: 500 μmol/L AZT
Source text: as §1

[5] = system: UGT (furosemide glucuronidation); test: Inhibition of furosemide glucuronidation in regular mouse liver microsomes; type: in vitro ADME; details: CD-1, mouse, pH 7.4, probe furosemide; regular mice liver microsomes
Source text: as §1

[6] = system: furosemide glucuronidation in mouse liver microsomes; test: as above; type: in vitro ADME; details: regular mice liver microsomes, 500 μmol/L AZT
Source text: as §1

[7] = system: UGT activities in human liver microsomes; set-up: method as in Court and Greenblatt [1997]; details: ref Court and Greenblatt [1997]; cited from earlier work
[8] = system: UGT activities in mouse liver microsomes; set-up: method as in Court and Greenblatt [1997]; details: ref Court and Greenblatt [1997]; cited from earlier work
[9] = system: liver microsomes from hUGT1 mice
[10] = system: human liver microsomes
[11] = system: mouse liver microsomes
[12] = system: furosemide glucuronidation in liver microsomes from hUGT1 mice; details: 0–0.5% BSA
[13] = system: furosemide glucuronidation in human liver microsomes; details: 0–0.5% BSA
[14] = system: furosemide glucuronidation in liver microsomes from control mice; details: 0–0.5% BSA

IC50 at 30 min [1]: > 500 µM
IC50 at 30 min [3]: > 500 µM
IC50 at 30 min [5]: > 500 µM
Compound: Cc1cn([C@H]2C[C@H](N=[N+]=[N-])[C@@H](CO)O2)c(=O)[nH]c1=O [AZT, 3′-azido-3′-deoxythymidine]
Inhibition of furosemide glucuronidation (in words) [2]: did not inhibit
Inhibition of furosemide glucuronidation (in words) [4]: did not inhibit
Inhibition of furosemide glucuronidation (in words) [6]: did not inhibit

Compound: C[C@H](CCC(=O)NCCC[N+](C)(C)CCCS(=O)(=O)[O-])[C@H]1CC[C@H]2[C@@H]3[C@H](O)C[C@@H]4C[C@H](O)CC[C@]4(C)[C@H]3C[C@H](O)[C@]12C [CHAPS]
Increase of UGT activities by detergent [7]: 9–66%
Increase of UGT activity by detergent [8]: 439–563%

IC50 at 30 min [1]: 32.5 µM
IC50 at 30 min [3]: 31.7 µM
IC50 at 30 min [5]: 111 µM
Compound: C[C@]12CC[C@@H]3c4ccc(O)cc4CC[C@H]3[C@@H]1CC[C@@H]2O [estradiol]

IC50 at 30 min [1]: 610 µM
IC50 at 30 min [3]: > 5000 µM
IC50 at 30 min [5]: 450 µM
Compound: NCCc1c[nH]c2ccc(O)cc12 [serotonin]

N-glucuronide formation [9]: lesser but detectable amount
N-glucuronide formation [10]: observed
N-glucuronide formation [11]: not detected
Compound: CN1CCN(CCCN2c3ccccc3Sc3ccc(C(F)(F)F)cc32)CC1 [trifluoperazine]

Compound: bovine serum albumin [BSA]
Effect of BSA on furosemide glucuronidation [12]: similarly observed
Effect of BSA on furosemide glucuronidation [13]: concentration-dependently activated
Effect of BSA on furosemide glucuronidation [14]: similarly observed
